# Source: patent US9232799B2, “N-[(het)arylethyl)] pyrazole(thio)carboxamides and their heterosubstituted analogues” (BAYER INTELLECTUAL PROPERTY GMBH, priority 2010, dated 2016)
# Where two headings read alike, the source gives them in different places.
# Tests used:
# [1] = logP by HPLC on reversed-phase column (C 18), EEC Directive 79/831 Annex V.A8; format: physicochemical
# Description: In table 1, the logP values were determined in accordance with EEC Directive 79/831 Annex V.A8 by HPLC (High Performance Liquid Chromatography) on a reversed-phase column (C 18), using the method described below: Temperature: 40° C.; […]
# Alternaria solani = test: In vivo preventive test on Alternaria solani (tomato); settings: 500 ppm of active ingredient, evaluated 7 days after inoculation
# Text: One day after this treatment, the plants are inoculated with an aqueous spore suspension of Alternaria solani.
# Pyrenophora teres = test: In vivo preventive test on Pyrenophora teres (barley); settings: 500 ppm of active ingredient, evaluated 7-9 days after inoculation
# Text: One day after this treatment, the plants are inoculated with an aqueous spore suspension of Pyrenophora teres.
# Septoria tritici = test: In vivo preventive test on Septoria tritici (wheat); settings: 500 ppm of active ingredient, evaluated 21 days after inoculation
# Text: (§1) To test for preventive activity, young plants are sprayed with the preparation of active compound or active compound combination at the stated rate of application.
# [2] = tested on: Blumeria graminis f.sp. hordei; test: In vivo preventive test on Blumeria graminis (barley); settings: 500 ppm of active ingredient, evaluated 7 days after inoculation
# Text: as §1
# aflatoxines production = test: microbe, parasite or virus in culture; format: cell-based, Aspergillus parasiticus; settings: 50 μM
# Fusarium graminearum = test: microbe, parasite or virus in culture; format: cell-based; settings: 50 μM
# Puccinia triticina = test: In vivo preventive test on Puccinia triticina (wheat); settings: evaluated 8 days after inoculation; for Efficacy: dose 500 ppm of active ingredient
# Sphaerotheca fuliginea = test: In vivo preventive test on Sphaerotheca fuliginea (cucumber); settings: 500 ppm of active ingredient, evaluated 7 days after inoculation
# Text: One day after this treatment, the plants are inoculated with an aqueous spore suspension of Sphaerotheca fuliginea.
# Leptosphaeria nodorum = test: In vivo preventive test on Leptosphaeria nodorum (wheat); settings: 500 ppm of active ingredient, evaluated 7-9 days after inoculation
# Text: One day after this treatment, the plants are inoculated with an aqueous spore suspension of Leptosphaeria nodorum.
# Botrytis cinerea = test: In vivo preventive test on Botrytis cinerea (beans)
# Text: To test for preventive activity, young plants are sprayed with the preparation of active compound. After the spray coating has dried on, 2 small pieces of agar covered with growth of Botrytis cinerea are placed on each leaf.
# [3] = Botrytis cinerea, 48 h, preventive, beans, 500 ppm of active ingredient, lesion size 2 days after inoculation, read-out: Efficacy
SMILES,logP [1],Efficacy (Alternaria solani) [%],Efficacy (Pyrenophora teres) [%],% Inhibition of Aflatoxin at 50 μM (aflatoxines production) [%],% Inhibition of fungal growth at 50 μM (Fusarium graminearum) [%],Efficacy (Puccinia triticina) [%],Efficacy (Sphaerotheca fuliginea) [%],Efficacy (Leptosphaeria nodorum) [%],other results
COC(CNC(=O)c1c(C(F)F)nn(C)c1F)c1cc(Cl)cc(Cl)c1 (stereo not drawn) [Example 107],3.33,90,95,98,74,–,–,–,Efficacy (Septoria tritici): 86%; Efficacy [2]: 78%
CN(CCc1ccc(F)cc1)C(=O)c1c(C(F)F)nn(C)c1Cl [Example 24],2.66,100,95,100,88,80,–,–,–
CC(Cc1cc(Cl)ccc1Cl)NC(=O)c1c(C(F)F)nn(C)c1Cl (stereo not drawn) [Example 93],3.53,100,100,100,100,70,95,–,–
"Cn1cc(C(=O)N(C2CC2)C2CCCC2c2ccc(Cl)cc2Cl)c(C(F)F)n1 (stereo not drawn) [7 from WO-2010/09466, N-cyclopropyl-N-[2-(2,4-dichlorophenyl)cyclopentyl]-3-(difluoromethyl)-1-methyl-1H-pyrazole-4-carboxamide, reference compound]",–,–,–,–,–,–,–,–,"Efficacy (protection) (Puccinia triticina; preventive, 500 ppm of active ingredient): less than 5%"
CC(c1ccccc1Cl)C(C)N(C(=O)c1c(C(F)F)nn(C)c1F)C1CC1 (stereo not drawn) [Example 41],3.87,100,100,100,100,–,74,95,Efficacy (Septoria tritici): 93%; Efficacy [2]: 100%
"Cn1cc(C(=O)NCCc2ccc(Cl)cc2Cl)c(C(F)F)n1 [compound CMP3, N-[2-(2,4-dichlorophenyl)ethyl]-3-(difluoromethyl)-1-methyl-1H-pyrazole-4-carboxamide, reference compound]",–,–,–,–,–,–,–,–,"pest or weed control at 100 ppm (Botrytis cinerea; Botrytis cinerea, 48 h, preventive, beans, 100 ppm of active ingredient, lesion size 2 days after inoculation, read-out: Efficacy): 0%"
Cn1nc(C(F)F)c(C(=O)N(C[Si](C)(C)c2ccccc2)C2CCCCC2)c1F [Example 229],4.86,90,70,–,–,80,–,–,–
"Cc1nn(C)c(F)c1C(=O)NC(C)Cc1ncc(C(F)(F)F)cc1Cl (stereo not drawn) [compound CMP6, N-{1-[3-chloro-5-(trifluoromethyl)pyridin-2-yl]propan-2-yl}-5-fluoro-1,3-dimethyl-1H-pyrazole-4-carboxamide, reference compound]",–,–,–,–,–,–,–,–,pest or weed control at 500 ppm (Botrytis cinerea; [3]): 0%
"Cc1nn(C)c(Cl)c1C(=O)NC(C)(C)C(=O)c1ccc2ccccc2c1 [2-1 from WO-2006/016708, 5-chloro-1,3-dimethyl-N-[2-methyl-1-(2-naphthyl)-1-oxopropan-2-yl]-1H-pyrazole-4-carboxamide, reference compound]",–,–,–,–,–,–,–,–,pest or weed control at 500 ppm (Botrytis cinerea; [3]): < 30%
CC(Cc1cccc(Oc2ccccc2)c1)NC(=O)c1c(C(F)F)nn(C)c1Cl (stereo not drawn) [Example 147],3.80,100,100,93,77,70,–,–,–
CN(CCc1cc(Cl)ccc1Cl)C(=O)c1c(C(F)F)nn(C)c1Cl [Example 95],3.33,100,100,100,100,70,–,–,–
"Cn1cc(C(=O)N[C@H]2C[C@H]2c2ccc(Cl)cc2)c(C(F)F)n1 [1.001 from WO-2007/134799, N-[(1S,2S-1R′,2R)-2-(4-chlorophenyl)cyclopropyl]-3-(difluoromethyl)-1-methyl-1H-pyrazole-4-carboxamide, reference compound]",–,–,–,–,–,–,–,–,"Efficacy (Botrytis cinerea; preventive, beans, 100 ppm of active ingredient, lesion size 2 days after inoculation): 8%; Efficacy (Botrytis cinerea; preventive, beans, 100 ppm of active ingredient, lesion size 2 days after inoculation, listed as 1.001): less than 10%; Efficacy (Botrytis cinerea; preventive, beans, 500 ppm of active ingredient, lesion size 2 days after inoculation): 89%; Efficacy (Botrytis cinerea; preventive, beans, 500 ppm of active ingredient, lesion size 2 days after inoculation, listed as 1.001): at least 85%"
COC(c1ccc(Cl)cc1Cl)C1(NC(=O)c2c(C(F)F)nn(C)c2F)CC1 (stereo not drawn) [Example 79],3.46,100,100,100,98,–,100,80,–
COC(c1ccc(Cl)cc1Cl)C1(NC(=O)c2c(C(F)F)nn(C)c2Cl)CC1 (stereo not drawn) [Example 78],3.70,100,100,100,100,–,100,80,–
Cn1nc(C(F)F)c(C(=O)N(C2CC2)C2CCCCC2(C)c2ccccc2)c1F (mixture of isomers) [Example 218],–,70,100,100,99,–,94,95,–
Cn1nc(C(F)F)c(C(=O)NC(C)(C)C(=O)c2ncc(C(F)(F)F)cc2Cl)c1Cl [Example 195],3.39,95,100,100,81,–,91,94,–
Cn1nc(C(F)F)c(C(=O)NC[Si](C)(C)c2ccc(Cl)cc2Cl)c1Cl [Example 239],4.25,90,–,–,–,70,–,–,–
CC(Cc1c(F)cccc1Cl)N(C(=O)c1c(C(F)F)nn(C)c1Cl)C1CC1 (stereo not drawn) [Example 119],3.94,100,100,95,79,80,–,–,–
CC(c1ccccc1Cl)C(C)N(C(=S)c1c(C(F)F)nn(C)c1F)C1CC1 (stereo not drawn) [Example 43],4.72,90,100,100,90,–,100,100,–
"CC(Cc1ccc(Cl)cc1)N(C(=O)c1cn(C)nc1C(F)F)C1CC1 (stereo not drawn) [F-3 from WO-2007/060164, N-[1-(4-chlorophenyl)propan-2-yl]-N-cyclopropyl-3-(difluoromethyl)-1-methyl-1H-pyrazole-4-carboxamide, reference compound]",–,–,–,–,–,–,–,–,"pest or weed control at 500 ppm (Botrytis cinerea; [3]): 0%; Efficacy (Botrytis cinerea; preventive, beans, 500 ppm of active ingredient, lesion size 2 days after inoculation, listed as F-3): no protection"
Cn1nc(C(F)F)c(C(=O)NC[Si](C)(C)c2ccccc2Cl)c1Cl [Example 232],3.69,–,–,–,–,95,–,–,–
CC(Cc1cc(Cl)cc(Cl)c1)NC(=O)c1c(C(F)F)nn(C)c1F (stereo not drawn) [Example 102],3.48,95,100,100,100,70,–,–,–
CC(Cc1ccccc1Cl)NC(=O)c1c(C(F)F)nn(C)c1F (stereo not drawn) [Example 31],2.94,100,100,100,100,–,96,70,–
"Cc1nn(C)c(F)c1C(=O)NCCc1ncc(C(F)(F)F)cc1Cl [J-1 from WO-2004/074280, N-{2-[3-chloro-5-(trifluoromethyl)pyridin-2-yl]ethyl}-5-fluoro-1,3-dimethyl-1H-pyrazole-4-carboxamide, reference compound]",–,–,–,–,–,–,16,–,"Efficacy (Sphaerotheca fuliginea; listed as J-1): less than 20%; pest or weed control at 500 ppm (Botrytis cinerea; [3]): 0%; Efficacy (Botrytis cinerea; preventive, beans, 500 ppm of active ingredient, lesion size 2 days after inoculation, listed as J-1): no protection"
CC(CN(C(=S)c1c(C(F)F)nn(C)c1F)C1CC1)c1ccccc1 (stereo not drawn) [Example 15],3.92,90,100,100,83,–,100,100,–
"Cc1nn(C)c(F)c1C(=O)N(C[Si](C)(C)c1cc(Cl)cc(Cl)c1)C1CC1 [compound CMP2, N-cyclopropyl-N-{[(3,5-dichlorophenyl)(dimethyl)silyl]methyl}-5-fluoro-1,3-dimethyl-1H-pyrazole-4-carboxamide, reference compound]",–,–,–,–,–,–,–,–,"pest or weed control at 500 ppm (Botrytis cinerea; Botrytis cinerea, 48 h, dose 500 ppm of active ingredient, table K10, read-out: Efficacy): 10%; pest or weed control at 500 ppm (Botrytis cinerea; [3]): < 10%"
